Results published in PMC9057948, “Identification, isolation, structural characterization, in silico toxicity prediction and in vitro cytotoxicity assay of simeprevir acidic and oxidative degradation products” (RSC Advances, 2020).
Where two headings read alike, the source gives them in different places.

Tests used:
[1] = SRB cytotoxicity (cell viability) assay; type: cell-based, Human; conditions: human, Human Skin Fibroblast (HSF) cells; for viability at 72 h, 0.01 µM / viability at 72 h, 0.1 µM / viability at 72 h, 1 µM / viability at 72 h, 10 µM: n = 3
Procedure: (§1) Human Skin Fibroblast cell line was obtained from Nawah Scientific Inc., (Mokatam, Cairo, Egypt). Cells were maintained in DMEM media supplemented with […] of streptomycin, 100 units per mL of penicillin and 10% of heat-inactivated fetal bovine serum in humidified, 5% (v/v) CO2 atmosphere at 37 °C.
(§2) Absorbance was measured in the cytotoxicity assay at 540 nm on a BMG LABTECH®-FLUOstar Omega microplate reader (Ortenberg, Germany).
(§3) Cell viability was assessed by SRB assay.[25] Aliquots of 100 μL cell suspension (5 × 10^3 cells) were in 96-well plates and incubated in complete media for 24 h. Cells were treated with another aliquot of 100 μL media containing (DP 1, DP 2, DP 3, DP 4, DP 5 and Doxorubicin as positive control) at various concentrations ranging from (0.01, 0.1, 1, 10, 100 μm). After 72 h of drug exposure, cells were fixed by replacing media with 150 μL of 10% TCA and incubated at 4 °C for 1 h. The TCA solution was removed, and the cells were washed 5 times with distilled water. Aliquots of 70 μL SRB solution (0.4% w/v) were added and incubated in a dark place at room temperature for 10 min. Plates were washed 3 times with 1% acetic acid and allowed to air-dry overnight. Then, 150 μL of Tris (10 mM) was added to dissolve protein-bound SRB stain; the absorbance was measured at 540 nm using microplate reader. The percentage of cell viability was calculated by using the following formula:[26] [drawing 1]
(§4) Cytotoxicity assay was carried out to confirm the in silico toxicity prediction study results. As an in vitro method to monitor the potential toxicity and/or safety of simeprevir and its degradation products (DP 1, DP 2, DP 3, DP 4 and DP 5), against Human Skin Fibroblast (HSF) cell line. SRB assay was used to assess the effect of these compounds on the viability and proliferation of HSF cell line (Table S1 ^†), in addition to taking images using the optical microscope to register any change on the tested cells.
(§5) The percentage of cell viability was measured at five different concentrations (0.01, 0.1, 1, 10 and 100 μM) in comparison with doxorubicin as a standard drug (positive control) which is monitored at the same concentration range after incubation for 72 h period.

[2] = system: Human Skin Fibroblast (HSF) cell line; assay: SRB cytotoxicity (cell viability) assay; type: cell-based; conditions: Homo sapiens; HSF cells, SRB assay, 72 h exposure, 0.01–100 μM
Procedure: as §1, §2, §3, §4, §5

[3] = system: Human Skin Fibroblast (HSF) cell line; assay: Optical microscope stained images of the cytotoxicity assay; type: cell-based; conditions: HSF cells, magnification 200×
Procedure: as §4
The optical microscope stained images were recorded as shown in Fig. 7 comparing the cytotoxic effect of the five degradation products with that of doxorubicin at a concentration of 100 μM. […] This proves that simeprevir acidic and oxidative degradation products are non-toxic up to 100 μM (IC50 > 100 μM).

[4] = Forced degradation study (stress degradation, HPLC); type: physicochemical
Procedure: The forced degradation studies were carried out on 1 mg mL^−1 in methanol. Acidic hydrolysis was performed by treating the drug with 0.5 M hydrochloric acid for 5 hours, while the basic hydrolysis conditions were 1 M sodium hydroxide for 5 hours. In both cases, the reaction was immersed in a boiling water bath maintained at 100 °C.
Oxidative degradation was performed by treating the drug with 3% hydrogen peroxide for 5 hours and the reaction was immersed in a boiling water bath maintained at 100 °C. In the thermal degradation, simeprevir was subjected to high temperature by placing the drug in a thermostatic oven at 100 °C.
The samples from the acidic and basic hydrolysis stress tests were neutralized and diluted with methanol to achieve final assay concentrations of 100 μg mL^−1. The final sample solutions were filtered through a 0.45 μm membrane before HPLC analysis. All sample solutions were stored at 4 °C in a refrigerator to avoid degradation.
Although, previous reports by Attia et al.[18] and Mohammed et al.[27] uses different basic hydrolysis conditions; 0.1 N NaOH for 3 hours at room temperature and 1 M NaOH for 2 hours at 60 °C; respectively. […] In our report, no peak was observed after HPLC injection of the alkaline degradation samples which is confirmed using TLC and Flash Chromatography; in which only drug peak was detected.

[5] = cited from earlier work
[6] = no reference given; cited from earlier work
[7] = 72 h, n = 3, read-out: Viability % (Mean)

Row | % Degradation, acidic degradation ([4]; 0.5 M HCl at 100 °C, 5 hours) | % Degradation, alkaline degradation ([4]; 1 M NaOH at 100 °C, 5 hours) | % Degradation, oxidative degradation ([4]; 3% w/v H2O2 at 100 °C, 5 hours) | % Degradation, thermal degradation ([4]; Oven at 100 °C, 10 hours) | SMILES | viability at 72 h, 0.01 µM ([1]; 72 h) | viability at 72 h, 0.1 µM ([1]; 72 h) | viability at 72 h, 1 µM ([1]; 72 h) | viability at 72 h, 10 µM ([1]; 72 h) | viability at 72 h, 100 µM [1, 7] | IC50 [2] | viability at 72 h, 100 µM ([1]; single replicate, read-out: cell viability in one of the replicates) | morphological changes ([3]; 100 μM) | morphological changes ([3]; 0.1 μM) | degradation percentage, basic hydrolysis ([5]; 0.1 N NaOH for 3 hours at room temperature, ref 18 (Attia et al.)) | degradation percentage, basic hydrolysis ([5]; 1 M NaOH for 2 hours at 60 °C, ref 27 (Mohammed et al.)) | pKa [6]
1 | – | – | – | – | COc1ccc2c(OC3C[C@H]4C(=O)OC(=O)[C@@H]4C3)cc(-c3nc(C(C)C)cs3)nc2c1C [DP 1] | 98.7% | 96.5% | 95.6% | 95.2% | 92.9% | > 100 µM | – | – | – | – | – | –
2 | – | – | – | – | COc1ccc2c(OC3CC4C(=O)NC5CC5C=CCCCCN(C)C(=O)C4C3)cc(-c3nc(C(C)C)cs3)nc2c1C (stereo not shown) [DP 2] | 98.5% | 98.5% | 97.4% | 97.1% | 95.6% | > 100 µM | – | – | – | – | – | –
3 | – | – | – | – | CN1CCCCC=CC2CC2(C(=O)NS(=O)(=O)C2CC2)NC(=O)C2CC(O)CC2C1=O (stereo not shown) [DP 3] | 97.7% | 97.6% | 93.4% | 91.1% | 90.9% | > 100 µM | 89.9% | slight changes | – | – | – | –
4 | – | – | – | – | COc1ccc2ccc(-c3scc(C(C)C)[n+]3[O-])[n+]([O-])c2c1CO [DP 4] | 96.1% | 93.9% | 93.1% | 92.1% | 92.7% | > 100 µM | – | – | – | – | – | –
5 | – | – | – | – | COc1ccc2ccc(-c3scc(C(C)C)[n+]3[O-])[n+]([O-])c2c1C [DP 5] | 96.3% | 96.8% | 93.7% | 93% | 92.5% | > 100 µM | – | – | – | – | – | –
6 | – | – | – | – | COc1cccc2c1C(=O)c1c(O)c3c(c(O)c1C2=O)C[C@@](O)(C(=O)CO)C[C@@H]3O[C@H]1C[C@H](N)[C@H](O)[C@H](C)O1 [Doxorubicin, reference compound] | 99.5% | 98.4% | 59.9% | 15.5% | 3.29% | 1.4 µM | – | – | no occurrence of morphological changes | – | – | –
7 | 26.63% | No degradation | 21.87% | No degradation | COc1ccc2c(O[C@@H]3C[C@H]4C(=O)N[C@]5(C(=O)NS(=O)(=O)C6CC6)C[C@H]5/C=C\CCCCN(C)C(=O)[C@@H]4C3)cc(-c3nc(C(C)C)cs3)nc2c1C [Simeprevir] | – | – | – | – | – | – | – | – | – | 35.55% | 39.80% | 5.9
